In ChEMBL document CHEMBL5131514, “Structure and Mechanism-Guided Design of Dual Serine/Metallo-Carbapenemase Inhibitors” (J Med Chem, 2022):
pIC50, pKi: −log10 of the molar value. Each block holds one compound with its values, some of them ahead of it.

Key:
[1] = Binding affinity to bacterial beta-lactamase VIM-1 expressed in Escherichia coli BL21 (DE3) assessed as inhibition constant using nitrocefin as substrate by spectrophotometric assay; parameters: species or system Bacteria
[2] = Binding affinity to recombinant full-length bacterial beta-lactamase KPC-2 assessed as inhibition constant using nitrocefin as substrate by spectrophotometric assay; parameters: species or system Bacteria
[3] = Binding affinity to Pseudomonas aeruginosa beta-lactamase IMP-1 expressed in Escherichia coli Lemo21(DE3) assessed as inhibition constant using nitrocefin as substrate by spectrophotometric assay
[4] = Inhibition of recombinant bacterial beta-lactamase VIM-2 MBL (27 to 266 residues) expressed in Escherichia coli Transetta (DE3) using FC-1 as substrate preincubated for 10 mins followed by substrate addition measured every 60 secs by fluorescence based assay; parameters: species or system Bacteria
[5] = Inhibition of recombinant bacterial beta-lactamase TEM-1 SBL (24 to 286 residues) expressed in Escherichia coli Transetta (DE3) using FC-1 as substrate preincubated for 4 hrs followed by substrate addition measured every 60 secs by fluorescence based assay; parameters: species or system Bacteria
[6] = Inhibition of recombinant bacterial beta-lactamase NDM-1 MBL (1 to 270 residues) expressed in Escherichia coli Transetta (DE3) using FC-1 as substrate preincubated for 10 mins followed by substrate addition measured every 60 secs by fluorescence based assay; parameters: species or system Bacteria
[7] = Inhibition of bacterial beta-lactamase NDM-1 (42 to 270 residues) expressed in Escherichia coli BL21 (DE3) assessed as inhibition constant using nitrocefin as substrate by microplate reader analysis; parameters: species or system Bacteria
[8] = Inhibition of bacterial beta-lactamase KPC-2 expressed in Escherichia coli BL21 (DE3) assessed as inhibition constant using nitrocefin as substrate by microplate reader analysis; parameters: species or system Bacteria
[9] = test system: Bacteria; assay: Inhibition of bacterial beta-lactamase CTX-M-15 at 200 uM CENTA substrate by colorimetric assay relative to control
[10] = test system: Bacteria; assay: Inhibition of bacterial beta-lactamase AmpC at 200 uM using CENTA substrate by colorimetric assay relative to control
[11] = test system: Bacteria; assay: Inhibition of recombinant bacterial beta-lactamase […] (28 to 270 residues) at 200 uM using CENTA substrate by colorimetric assay relative to control
[12] = test system: Bacteria; assay: Inhibition of bacterial beta-lactamase KPC-2 at 200 uM using CENTA substrate by colorimetric assay relative to control
[13] = test system: Bacteria; assay: Inhibition of recombinant bacterial beta-lactamase VIM-2 (26 to 266 residues) expressed in Escherichia coli Lemo21(DE3) at 200 uM using CENTA substrate by colorimetric assay relative to control
[14] = Inhibition of bacterial beta-lactamase CTX-M-15 assessed as inhibition constant using cephalothin as substrate by spectrophotometric assay; parameters: species or system Bacteria
[15] = Inhibition of recombinant bacterial beta-lactamase […] (28 to 270 residues) assessed as inhibition constant using imipenem as substrate by spectrophotometric assay; parameters: species or system Bacteria
[16] = Inhibition of bacterial beta-lactamase CTX-M-15 using nitrocefin as substrate incubated for 10 mins and measured every 10 seconds for 10 mins; parameters: species or system Bacteria
[17] = Inhibition of bacterial beta-lactamase TEM-10 using nitrocefin as substrate incubated for 10 mins and measured every 10 seconds for 10 mins; parameters: species or system Bacteria
[18] = Inhibition of bacterial beta-lactamase IMP-1 using imipenem as substrate incubated for 10 mins followed by substrate addition measured every 30 seconds for 1 hr; parameters: species or system Bacteria
[19] = Inhibition of bacterial beta-lactamase VIM-1 using nitrocefin as substrate incubated for 10 mins followed by substrate addition measured every 10 seconds for 10 mins; parameters: species or system Bacteria
[20] = Inhibition of bacterial beta-lactamase OXA-48 using nitrocefin as substrate incubated for 10 mins and measured every 10 seconds for 10 mins; parameters: species or system Bacteria
[21] = Inhibition of bacterial beta-lactamase P99 using nitrocefin as substrate incubated for 10 mins and measured every 10 seconds for 10 mins; parameters: species or system Bacteria
[22] = Inhibition of bacterial beta-lactamase KPC-2 using nitrocefin as substrate incubated for 10 mins and measured every 10 seconds for 10 mins; parameters: species or system Bacteria
[23] = Inhibition of bacterial beta-lactamase SHV-12 using nitrocefin as substrate incubated for 10 mins and measured every 10 seconds for 10 mins; parameters: species or system Bacteria

SMILES: S=c1[nH]ncn1/N=C/c1c[nH]c2ccccc12
pKi [1]: 4.02 | pKi [2]: 3.86 | pKi [3]: 3.98

SMILES: O=C(Nc1nnn[nH]1)C(Nc1ccccc1)c1ccccc1 (centres undefined)
pKi [7]: 3.32 | pKi [8]: 3.32

SMILES: O=C(Nc1nnn[nH]1)C(c1ccccc1)[S+]([O-])c1ccccc1 (centres undefined)
pKi [7]: 3.69 | pKi [8]: 2.80

SMILES: O=C(Nc1nnn[nH]1)c1cc(-c2ccccc2)n(-c2ccccc2)n1
pKi [7]: 4.25 | pKi [8]: 3.62

SMILES: S=C(N/N=C/c1ccccc1)N1CCOCC1
inhibition [9]: 32% | pKi [14]: 4.30 | inhibition [10]: 50% | inhibition [11]: 71% | inhibition [12]: 41% | pKi [15]: 4.49 | inhibition [13]: 33%

SMILES: CCn1c(S)nnc1-c1nn(C)c(C)c1Cl
inhibition [9]: < 20% | inhibition [10]: 37% | inhibition [11]: 70% | inhibition [12]: < 20% | inhibition [13]: 86%

SMILES: CCN(CC)c1ccc(CNn2cn[nH]c2=S)cc1
pKi [1]: 3.65 | pKi [2]: 3.58 | pKi [3]: 3.76

SMILES: Sc1nnc(-c2ccco2)n1C1CC1
inhibition [9]: 49% | inhibition [10]: < 20% | inhibition [11]: 62% | inhibition [12]: 46% | inhibition [13]: 81%

SMILES: O=C(O)c1c(F)ccc2c1OB(O)[C@@H]1C[C@H]21 [XERUBORBACTAM]
pIC50 [16]: 8.92 | pIC50 [17]: 8.66 | pIC50 [18]: 6.21 | pIC50 [19]: 7.85 | pIC50 [20]: 8.96 | pIC50 [21]: 7.66 | pIC50 [22]: 8.54 | pIC50 [23]: 8.72

SMILES: O=C(Nc1nnn[nH]1)c1cc(-c2ccccc2)nn1-c1ccccc1
pKi [7]: 4.21 | pKi [8]: 4.36

SMILES: S=c1[nH]ncn1NCc1ccc2c(c1)OCO2
pKi [1]: 3.92 | pKi [2]: 3.86 | pKi [3]: 3.90

Second part, led by results:

pKi [2]: 3.80
SMILES: Sc1nncn1/N=C/c1ccc(Br)cc1
pKi [1]: 4.24 | pKi [3]: 3.55

pIC50 [4]: 4.96 | pIC50 [5]: 4.17 | pIC50 [6]: 4.49
SMILES: O=P(O)(O)C(c1ccccc1-c1ccccn1)P(=O)(O)O

inhibition [9]: 33% | inhibition [10]: < 20% | inhibition [11]: 54% | inhibition [12]: < 20% | inhibition [13]: 87%
SMILES: Sc1nnc(-c2cccnc2)n1CC1CCCO1 (centres undefined)

pIC50 [4]: 5.42 | pIC50 [5]: 5.76 | pIC50 [6]: 4.77
SMILES: O=P(O)(O)C(c1ccc2ccccc2c1-c1ccccn1)P(=O)(O)O

pIC50 [4]: 5.25 | pIC50 [5]: 4.94 | pIC50 [6]: 4.82
SMILES: O=P(O)(O)C(c1cc2ccccc2n1-c1ncccn1)P(=O)(O)O

inhibition [9]: 55% | inhibition [10]: 32% | inhibition [11]: 79% | inhibition [12]: 66% | inhibition [13]: 45%
SMILES: O=C(NC(=S)NNC(=O)c1cccs1)c1ccc(Br)o1
